Source: US10407712B2, “Methods, compositions and kits for high throughput kinase activity screening using mass spectrometry and stable isotopes” (President and Fellows of Harvard College, priority 2008, dated 2019)
Each block holds one compound with its values, some of them ahead of it.

What was measured:
HEK293 cells [1] = test: Single-reaction KAYAK of HEK293 cells treated with kinase inhibitors followed by insulin stimulation; assay type: cell-based, human; conditions: HEK293, inhibitor 30 min then 100 nM insulin 30 min
HEK293 cells [2] = test: KAYAK of lysates from HEK293 cells pretreated with inhibitors before mitogen stimulation; assay type: cell-based, human
Protocol: For drug inhibition studies, cells were pretreated with U0126 (5 μM) or Wortmannin (100 nM) for 1 hr prior to hormone stimulation.
(§1) Peptides were synthesized, purified and quantified as described in Yu et al. 2009 Proc Natl Acad Sci USA 106: 11606-11611, hereby incorporated by reference herein in its entirety. Each substrate peptide (250 pmol) was mixed to a final concentration of 5 μM in the 50 μL reaction mixture. Alternatively, reactions were performed using 6 μg cell lysate aliquotes mixed to a final volume of 20 μl. Cell lysate or other kinase source was added to the substrate mixture in 25 mM Tris-Cl, pH 7.5, containing 5 mM ATP, 7.5 mM MgCl2, 0.2 mM EGTA, 7.5 mM β-glycerophosphate, 0.1 mM Na3VO4, and 0.1 mM DTT. The reaction was incubated at 25° C. for 60 min and then terminated by the addition of 100 μl of 1% trifluoroacetic acid (TFA) containing a known amount of an internal standard (typically 20 pmol). Alternatively, the reaction was incubated at 20° C. for 45 min before termination with TFA.
The KAYAK method was applied to measure the effect of pharmacological inhibitors or siRNA-mediated knockdown of kinase pathways after mitogen stimulation (see FIGS. 5A-5D and 8 for data obtained by immunoblotting analysis of cell lysates). […] EGF stimulated cell lysates strongly phosphorylated peptides B6, C6, C11 and G5 and these effects were blocked by pretreating cells with the MEK-specific inhibitor U0126.
In contrast, phosphorylation levels of these peptides were not changed as a result of insulin stimulation. […] PMA activates the MAPK pathway by activating the upstream kinase, PKC (Blenis et al. 1993 Proc Natl Acad Sci USA 90: 5889-5892). Because the observed increase in phosphorylation was reversed by prior treatment of cells with U0126, it was concluded that these peptides were not PKC substrates. Rather they were likely phosphorylated by kinases downstream of the MAPK pathway.
(§2) It was observed that basal phosphorylation of these peptides was not affected by knockdown and likely was the result of remaining RSK isoforms or other basophilic kinases (FIG. 5C).

HEK293 cell lysates [3] = test: Single-reaction 90-substrate KAYAK assay, HEK293 lysates with or without insulin; assay type: biochemical, human; conditions: for phosphorylation in response to insulin stimulation: 5 μM each peptide, HEK293 lysate
Protocol: (§3) For stimulation of HEK293 cells or HeLa lines, cells were treated with insulin (100 nM; 10-30 min) EGF (50 ng/ml; 10 min) or phorbol 12-myristate 13-acetate (PMA; 50 or 100 ng/ml; 10 -30 min) at 37° C. for the indicated times after overnight serum-starvation.
Alternatively, cells were washed with PBS once and lysed with ice-cold lysis buffer, 10 mM potassium phosphate, pH 7.0, containing 0.5% NP-40, 0.1% Brij 35, 0.1% deoxycholic acid, 1 mM ethylenediaminetetraacetic acid (EDTA), 5 mM ethylene glycol tetraacetic acid (EGTA), 10 mM MgCl2, 50 mM β-glycerophosphate, 1 mM Na3VO4, 2 mM dithiothreitol (DTT) and protease inhibitor cocktail (Complete, Roche Applied Science, Indianapolis, Ind.). Homogenates were centrifuged at 10,000 rpm for 15 min at 4° C., and the supernatant was used as lysate. Protein concentration was quantified by a modified Bradford assay (Pierce).
as §1
Internal standard heavy peptides (5 pmol each) were added as a mixture to the terminated reactions followed by desalting with a solid phase extraction cartridge (SepPak tC18 (50 mg), Waters, Milford, Mass.). Phosphopeptides were enriched as described (Villen et al. 2008 Nat Protoc 3: 1630-1638). […]
For KAYAK analyses, phosphopeptides were dissolved in 5% FA and injected onto a 125-μm-internal diameter fused silica column packed with Magic C18 AQ material (Michrom Bioresources, Auburn, Calif.). Peptides were separated using a two-solvent system: solvent A (0.125% FA and 3% ACN in H2O), solvent B (0.125% FA in ACN) over 32 min gradient, and eluting peptides were directly analyzed using an LTQ-Orbitrap mass spectrometer (Thermo Scientific, San Jose, Calif.) equipped with the electron transfer dissociation option. […]

HEK293 cell lysates [4] = test: KAYAK in vitro kinase assay, individual reactions, lysates of starved, insulin- or EGF-stimulated HEK293 cells; assay type: biochemical, human; conditions: for E: changed phosphorylation in EGF stimulated condition: EGF-stimulated compared to starved HEK293 cells; for increase in phosphorylation after EGF: EGF-stimulated vs serum-starved HEK293 lysate; for increase in phosphorylation after insulin: insulin-stimulated vs serum-starved HEK293 lysate
Protocol: as §3
(§4) For cell lysis, the media were removed, and cells were washed with ice-cold phosphate-buffered saline (PBS) and lysed with ice-cold lysis buffer (10 mM K2HPO4 pH 7.5, 1 mM EDTA, 10 mM MgCl2, 50 mM β-glycerophosphate, 5 mM EGTA, 0.5% Nonidet P-40, 0.1% Brij 35, 0.1% deoxycholic acid, 1mM sodium orthovanadate, 1mM phenylmethyl-sulfonyl fluoride, 5 μg/ml leupeptin and 5 μg/ml pepstatin A). Lysates were centrifuged at 10,000 rpm for 10 min to remove cell debris, and clear supernatant was used for immunoblotting and in vitro kinase assays. Protein concentration was determined by Bradford assay (Biorad, Hercules, Calif.).
as §1
(§5) Forty-five individual in vitro kinase reaction mixtures were combined and desalted by using Sep-Pak C18 cartridge (Waters, Milford, Mass.). Phosphopeptides were enriched by immobilized metal ion chromatography (IMAC) with 20 μl of beads (Phos-Select iron affinity gel; Sigma, St. Louis, Mo.) and subsequently desalted by using Empore C18 solid phase extraction disks (3M, St. Paul, Minn.) as described previously.
(§6) Quantitation of the target peptide-internal standard ratios was performed by first constructing the extracted ion chromatogram for the most abundant charge state for each peptide using a ±10 ppm window. Chromatograms were integrated using Qual/Quan browser (Xcalibur 2.0.5, Thermo Fisher, San Jose, Calif.). Since the phosphorylated peptides generated from the in vitro kinase reactions were chemically identical to the internal standards, they were assumed to have the same ionization efficiency. Therefore, the amount of each phosphorylated peptide was calculated by direct ratio to the internal standard level.
(§7) To test substrate suitability in a multiplexed assay, the phosphorylation activities were measured using […] of each substrate peptide, 6 μg lysate, and 5 mM ATP in a plate format. Reactions proceeded for 60 minutes followed by acidification and the addition of isotope-labeled reference peptides. After pooling 45 samples, phosphopeptide enrichment was followed by liquid-chromatography (LC) separation and on-line peptide detection by high-resolution mass spectrometry.
The ability of the peptides to report specific changes in kinase activation after pathway stimulation was examined herein. Lysates from HEK293 cells were collected after insulin or EGF treatment and were compared to their activities in the serum-starved state using the KAYAK approach. Western blot analysis of lysates from cells in which the PI3K and MAPK pathways were activated, as indicated by elevated phospho-Akt and phospho-ERK1/2 levels, respectively, is shown in FIG. 1D. […]

HeLa cell lysates = test: KAYAK in vitro kinase assay, lysates of asynchronous, G1/S- or G2/M-arrested HeLa cells; assay type: biochemical, human; conditions: G2/M phase compared to asynchronously growing HeLa cells
Protocol: For cell cycle examples, HeLa cells were synchronized by double thymidine block for G1/S-arrest and by 0.2 μg/ml nocodazole for G2/M-arrest as described (Dephoure et al. 2008 Proc Natl Acad Sci USA 105: 10762-10767). Synchronization was confirmed by flow cytometry.
as §4, §1, §5, §6, §7
In order to examine target peptides with cell-cycle-dependent phosphorylation, kinase activities in asynchronously growing HeLa cells were profiled and the profiles were compared with those of cells synchronized in G1/S and G2/M phase using a double-thymidine block and nocodazole arrest, respectively (FIG. 3B).

recombinant RSK1 = biological target: T1, recombinant RSK1 (Homo sapiens, UniProt Q15418); test: In vitro peptide phosphorylation by purified RSK; assay type: biochemical
T1 construct: 90 kDa ribosomal S6 kinases 1 (RSK1, 1-735); purchased Cell Signaling Technology (Danvers, Mass.)
T1 sequence (Q15418 whole entry): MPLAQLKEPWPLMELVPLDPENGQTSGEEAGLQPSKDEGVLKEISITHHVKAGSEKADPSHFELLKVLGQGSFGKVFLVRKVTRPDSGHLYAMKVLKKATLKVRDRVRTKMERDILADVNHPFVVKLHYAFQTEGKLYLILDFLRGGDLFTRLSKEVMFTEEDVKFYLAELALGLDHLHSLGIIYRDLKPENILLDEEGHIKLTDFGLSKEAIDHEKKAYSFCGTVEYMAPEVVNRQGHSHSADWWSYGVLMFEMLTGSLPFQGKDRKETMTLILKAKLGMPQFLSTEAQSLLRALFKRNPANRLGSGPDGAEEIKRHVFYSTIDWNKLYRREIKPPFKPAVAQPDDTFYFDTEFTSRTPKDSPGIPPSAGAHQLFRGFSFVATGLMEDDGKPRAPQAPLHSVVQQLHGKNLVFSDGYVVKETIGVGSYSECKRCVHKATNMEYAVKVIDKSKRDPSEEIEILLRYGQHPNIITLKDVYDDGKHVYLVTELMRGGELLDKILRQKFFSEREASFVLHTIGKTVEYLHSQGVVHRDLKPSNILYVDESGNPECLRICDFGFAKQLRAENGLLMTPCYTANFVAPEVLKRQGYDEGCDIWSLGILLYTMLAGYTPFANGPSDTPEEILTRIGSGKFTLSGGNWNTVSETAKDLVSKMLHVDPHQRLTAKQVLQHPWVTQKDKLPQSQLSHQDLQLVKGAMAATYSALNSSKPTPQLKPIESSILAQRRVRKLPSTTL
Description: (§8) Reaction mixture was supplemented with 0.1% BSA. Other conditions were the same as in FIG. 10A.
(§9) Purified human active kinases of Akt1 (full length), extracellular signal-regulated kinase 1 (ERK1, 1-379), mitogen-activated protein kinase kinase 1 (MEK1, 1-393), 90 kDa ribosomal S6 kinases 1 (RSK1, 1-735), cAMP-dependent protein kinase (PKA) catalytic subunit-α (PKA Cα, 1-351), protein kinase Cα (PKCα, full length), epidermal growth factor (EGF) receptor (EGFR, 672-1210), platelet-derived growth factor (PDGF) receptor α (PDGFRα, 550-1090), vascular endothelial growth factor (VEGF) receptor 1 (VEGFR1 784-1338), Src (full length), casein kinase 2 (CK2, full length), Aurora A (1-403), AMP-activated protein kinase α1β1γ1 (AMPK α1β1γ1, full length), glycogen synthase kinase-3α (GSK-3α, 1-483) and MAP/microtubule affinity-regulating kinase 1 (MARK 1, full length) were obtained from Cell Signaling Technology (Danvers, Mass.). Cdc2/cyclin B1 (full length) and insulin-like growth factor (IGF)-I receptor (IGFIR, 959-1367) were obtained from Upstate (Temecula, Calif.).
as §1, with “Each substrate peptide (250 pmol) was mixed to a final concentration of 5 μM in the 50 μL reaction mixture.” left out
as §2

activated, purified Akt = biological target: T2, activated, purified Akt (Homo sapiens, UniProt P31749); test: In vitro peptide phosphorylation by purified Akt; assay type: biochemical; conditions: control, 2 ng purified kinase
T2 construct: Purified human active kinases of Akt1 (full length); purchased Cell Signaling Technology (Danvers, Mass.)
T2 sequence (P31749 whole entry): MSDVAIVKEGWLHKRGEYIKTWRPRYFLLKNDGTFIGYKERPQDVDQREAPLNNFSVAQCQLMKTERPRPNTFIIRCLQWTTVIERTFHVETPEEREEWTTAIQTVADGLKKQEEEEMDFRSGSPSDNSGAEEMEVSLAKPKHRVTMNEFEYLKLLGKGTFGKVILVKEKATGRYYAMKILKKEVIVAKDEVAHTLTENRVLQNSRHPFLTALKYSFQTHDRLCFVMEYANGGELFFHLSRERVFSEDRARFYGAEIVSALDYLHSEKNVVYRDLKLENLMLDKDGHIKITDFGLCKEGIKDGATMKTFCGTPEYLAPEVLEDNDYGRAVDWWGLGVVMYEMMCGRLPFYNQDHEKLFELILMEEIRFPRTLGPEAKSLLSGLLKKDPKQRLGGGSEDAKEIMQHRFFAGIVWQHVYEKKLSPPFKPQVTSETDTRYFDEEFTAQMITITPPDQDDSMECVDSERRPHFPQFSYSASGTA
Description: as §8, §9
Peptides were synthesized, purified and quantified as described in Yu et al. 2009 Proc Natl Acad Sci USA 106: 11606-11611, hereby incorporated by reference herein in its entirety. […] Alternatively, reactions were performed using 6 μg cell lysate aliquotes mixed to a final volume of 20 μl. […]

Compound: O=c1[nH]c2ccccc2n1C1CCN(Cc2ccc(-c3nc4cc5[nH]cnc5cc4nc3-c3ccccc3)cc2)CC1 [Akt inhibitor VIII]
- effect on phosphorylation rate of the A3 peptide (HEK293 cells [1]): decreased

Compound: C[S+]([O-])c1ccc(-c2nc(-c3ccncc3)c(-c3ccc(F)cc3)[nH]2)cc1 (stereo not drawn) [SB203580]
- effect on insulin-stimulated phosphorylation of peptide E11 (HEK293 cells [1]): paradoxical upregulation

Compound: N#CC(=C(/N)Sc1ccccc1N)/C(C#N)=C(\N)Sc1ccccc1N [U0126]
- effect on insulin-stimulated phosphorylation of peptide E11 (HEK293 cells [1]): blocked
- effect on EGF-stimulated phosphorylation of peptides B6, C6, C11 and G5 (HEK293 cells [2]; 5 μM, 1 hr pretreatment, HEK293): blocked
- RSK-equivalent activity of lysate, peptide C6 as substrate (HEK293 cells [2]; cells pretreated with U0126 then stimulated with EGF, EGF alone approximately 0.6 ng per μg): 0.2 ng RSK/μg lysate
- effect on PMA-induced increase in phosphorylation of RSK peptides (HEK293 cells [2]; prior treatment of cells, HEK293): reversed

Compound: RKRLISSVEDPFR (The sequence was designed and synthesized) [E11]
- phosphorylation in response to insulin stimulation (HEK293 cell lysates [3]): increased phosphorylation
- increase of phosphorylation rate with insulin (HEK293 cell lysates [3]; HEK293): more than 2 fold
- E: changed phosphorylation in EGF stimulated condition (HEK293 cell lysates [4]): + (A change of more +2 fold and −2 fold is indicated by “+” and “−”, respectively.)
- increase in phosphorylation after EGF (HEK293 cell lysates [4]): 2.3 fold
- increase in phosphorylation after insulin (HEK293 cell lysates [4]): 1.7 fold
- G2/M: changed phosphorylation (HeLa cell lysates): − (A change of more +2 fold and −2 fold is indicated by “+” and “−”, respectively.)

Compound: RPRAATFPFR (The sequence was designed and synthesized) [A3]
- phosphorylation in response to insulin stimulation (HEK293 cell lysates [3]): increased phosphorylation
- E: changed phosphorylation in EGF stimulated condition (HEK293 cell lysates [4]): + (A change of more +2 fold and −2 fold is indicated by “+” and “−”, respectively.)
- increase in phosphorylation after EGF (HEK293 cell lysates [4]): 2.9 fold
- I: changed phosphorylation in insulin stimulated condition (HEK293 cell lysates [4]; insulin-stimulated compared to starved HEK293 cells): ++ (A change of more than +4 and −4 fold is indicated by “++” and “−−”, respectively.)
- increase in phosphorylation after insulin (HEK293 cell lysates [4]): 4.6 fold

- phosphorylation by recombinant RSK1 in vitro (recombinant RSK1): robustly phosphorylate
- phosphorylation by Akt (activated, purified Akt): not significantly phosphorylated
Compound: TKRSGSVYEPPFR (The sequence was designed and synthesized) [C6]
- E: changed phosphorylation in EGF stimulated condition (HEK293 cell lysates [4]): + (A change of more +2 fold and −2 fold is indicated by “+” and “−”, respectively.)
- G2/M: changed phosphorylation (HeLa cell lysates): − (A change of more +2 fold and −2 fold is indicated by “+” and “−”, respectively.)
